Laboratory results from ChEMBL document CHEMBL1139417, “Synthesis and biological evaluation of novel 3'-N-tert-butylsulfonyl analogues of docetaxel” (Bioorg Med Chem Lett, 2008).

How the values were obtained:
Assay type in all cases: functional, cell-based
[1] = Cytotoxicity against human Eca109 cells; conditions: ECa-109
SMMC-7721 = assay: Cytotoxicity against human SMMC7721 cells
HCT-8 = assay: Cytotoxicity against human HCT8 cells
HeLa = assay: Cytotoxicity against human HeLa cells

Structure (SMILES) | IC50 [1] | IC50 (SMMC-7721) | IC50 (HCT-8) | IC50 (HeLa)
CC(=O)O[C@@]12CO[C@@H]1C[C@H](O)[C@@]1(C)C(=O)[C@H](O)C3=C(C)[C@@H](OC(=O)[C@H](O)[C@@H](NS(=O)(=O)C(C)(C)C)c4ccccc4)C[C@@](O)([C@@H](OC(=O)c4ccccc4)[C@H]21)C3(C)C | 7140 nM | > 10000 nM | 9120 nM | 9540 nM
CC(=O)O[C@@]12CO[C@@H]1C[C@H](O)[C@@]1(C)C(=O)[C@H](O)C3=C(C)[C@@H](OC(=O)[C@H](O)[C@@H](NS(=O)(=O)C(C)(C)C)c4cccc[n+]4[O-])C[C@@](O)([C@@H](OC(=O)c4ccccc4)[C@H]21)C3(C)C | 1950 nM | 2540 nM | 2850 nM | 2540 nM
CC(=O)O[C@@]12CO[C@@H]1C[C@H](O)[C@@]1(C)C(=O)[C@H](O)C3=C(C)[C@@H](OC(=O)[C@H](O)[C@@H](NS(=O)(=O)C(C)(C)C)c4ccc[n+]([O-])c4)C[C@@](O)([C@@H](OC(=O)c4ccccc4)[C@H]21)C3(C)C | 2520 nM | 2450 nM | 3030 nM | 2670 nM
CC(=O)O[C@@]12CO[C@@H]1C[C@H](O)[C@@]1(C)C(=O)[C@H](O)C3=C(C)[C@@H](OC(=O)[C@H](O)[C@@H](NC(=O)OC(C)(C)C)c4ccccc4)C[C@@](O)([C@@H](OC(=O)c4ccccc4)[C@H]21)C3(C)C [DOCETAXEL] | 2600 nM | 2730 nM | 3070 nM | 3030 nM
CC(=O)O[C@H]1C(=O)[C@@]2(C)[C@H]([C@H](OC(=O)c3ccccc3)[C@]3(O)C[C@H](OC(=O)[C@H](O)[C@@H](NC(=O)c4ccccc4)c4ccccc4)C(C)=C1C3(C)C)[C@]1(OC(C)=O)CO[C@@H]1C[C@@H]2O [PACLITAXEL] | 2730 nM | 2860 nM | 3290 nM | 
